Reference: ChEMBL document CHEMBL1201862, “PubChem BioAssay data set” (2004)
Calls of active or inactive are those of the source. For most assays here, no stated cut-off is given here; in the data, actives have a measured EC50 and inactives only a lower limit.

Assays:
[1] = target: T1, RNA-binding protein pos-1 (Caenorhabditis elegans, UniProt G5EF15); assay: disruptors of C. elegans POS-1 RNA interaction – biochemical, fluorescence polarization, dose response (AID 1964);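 further: purified POS-1 fused to maltose binding protein made in E. coli; potency of compounds blocking POS-1 binding to fluorescent RNA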
T1 sequence (G5EF15 whole entry): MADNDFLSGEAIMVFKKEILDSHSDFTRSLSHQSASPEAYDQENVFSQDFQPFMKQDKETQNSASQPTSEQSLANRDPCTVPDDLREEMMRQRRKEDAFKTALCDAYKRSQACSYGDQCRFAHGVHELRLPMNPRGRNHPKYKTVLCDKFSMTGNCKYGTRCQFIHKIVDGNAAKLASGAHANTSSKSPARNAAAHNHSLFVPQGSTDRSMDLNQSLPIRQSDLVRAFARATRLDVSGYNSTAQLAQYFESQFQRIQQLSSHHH

[2] = target: T2, Zinc finger protein mex-5 (Caenorhabditis elegans, UniProt Q9XUB2); assay: potency of MEX-5 RNA-binding blockers – biochemical, C. elegans, fluorescence polarization, dose response (AID 1960)
T2 sequence (Q9XUB2 whole entry): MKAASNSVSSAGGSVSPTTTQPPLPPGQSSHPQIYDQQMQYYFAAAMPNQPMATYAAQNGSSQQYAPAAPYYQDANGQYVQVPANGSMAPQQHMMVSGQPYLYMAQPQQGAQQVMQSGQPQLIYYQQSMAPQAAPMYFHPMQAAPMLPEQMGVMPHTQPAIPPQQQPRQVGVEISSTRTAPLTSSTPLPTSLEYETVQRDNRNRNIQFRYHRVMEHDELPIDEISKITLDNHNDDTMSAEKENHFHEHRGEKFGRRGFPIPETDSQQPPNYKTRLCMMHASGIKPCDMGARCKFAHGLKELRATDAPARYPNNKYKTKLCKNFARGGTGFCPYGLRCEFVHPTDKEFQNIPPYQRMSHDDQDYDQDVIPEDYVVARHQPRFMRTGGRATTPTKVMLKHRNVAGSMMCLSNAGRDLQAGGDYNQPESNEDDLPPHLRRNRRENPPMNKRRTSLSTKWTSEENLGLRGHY

[3] = viability of uninfected HEp-2 cells – cell-based, HTS, cytotoxicity control for RSV inhibitor project, dose response (AID 2410); assay type: functional; conditions: human respiratory syncytial virus
[4] = target: T3, Corticotropin-releasing factor receptor 2/Corticotropin-releasing factor-binding protein (Homo sapiens, UniProt P24387+Q13324); assay: activators of CRF receptor 2 with binding protein – uHTS hits, confirmation (AID 602473); assay type: functional; conditions: read-out: EC50_Mean
T3 sequence (Q13324 whole entry): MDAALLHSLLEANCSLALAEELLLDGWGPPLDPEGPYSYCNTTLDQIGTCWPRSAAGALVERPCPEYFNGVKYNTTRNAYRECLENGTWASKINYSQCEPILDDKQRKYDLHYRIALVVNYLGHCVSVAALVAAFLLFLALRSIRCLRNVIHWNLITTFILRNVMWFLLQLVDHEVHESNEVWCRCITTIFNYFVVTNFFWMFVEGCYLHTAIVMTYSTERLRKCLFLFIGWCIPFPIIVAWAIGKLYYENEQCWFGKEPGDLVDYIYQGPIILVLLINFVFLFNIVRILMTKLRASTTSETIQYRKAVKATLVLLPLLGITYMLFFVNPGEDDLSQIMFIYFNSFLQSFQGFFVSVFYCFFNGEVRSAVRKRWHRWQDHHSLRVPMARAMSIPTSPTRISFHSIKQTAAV
T3 sequence (P24387 whole entry): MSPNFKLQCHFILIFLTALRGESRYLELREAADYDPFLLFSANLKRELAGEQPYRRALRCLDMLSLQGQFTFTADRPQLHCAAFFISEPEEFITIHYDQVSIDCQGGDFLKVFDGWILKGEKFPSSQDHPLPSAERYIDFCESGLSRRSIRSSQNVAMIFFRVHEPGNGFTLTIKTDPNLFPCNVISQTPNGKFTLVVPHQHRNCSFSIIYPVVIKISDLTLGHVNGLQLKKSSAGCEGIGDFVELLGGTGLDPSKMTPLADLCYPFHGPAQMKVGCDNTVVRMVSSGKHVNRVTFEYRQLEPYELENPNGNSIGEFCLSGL

[5] = microbe, parasite or virus in culture; assay type: functional; conditions: Mycobacterium tuberculosis
[6] = target: T4, Replicative DNA helicase DnaB (Mycobacterium tuberculosis, UniProt P9WMR3); assay: DnaB intein splicing inhibitors, dose response, biochemical, cell-free fluorescence (AID 449749); assay type: functional
T4 sequence (P9WMR3 whole entry): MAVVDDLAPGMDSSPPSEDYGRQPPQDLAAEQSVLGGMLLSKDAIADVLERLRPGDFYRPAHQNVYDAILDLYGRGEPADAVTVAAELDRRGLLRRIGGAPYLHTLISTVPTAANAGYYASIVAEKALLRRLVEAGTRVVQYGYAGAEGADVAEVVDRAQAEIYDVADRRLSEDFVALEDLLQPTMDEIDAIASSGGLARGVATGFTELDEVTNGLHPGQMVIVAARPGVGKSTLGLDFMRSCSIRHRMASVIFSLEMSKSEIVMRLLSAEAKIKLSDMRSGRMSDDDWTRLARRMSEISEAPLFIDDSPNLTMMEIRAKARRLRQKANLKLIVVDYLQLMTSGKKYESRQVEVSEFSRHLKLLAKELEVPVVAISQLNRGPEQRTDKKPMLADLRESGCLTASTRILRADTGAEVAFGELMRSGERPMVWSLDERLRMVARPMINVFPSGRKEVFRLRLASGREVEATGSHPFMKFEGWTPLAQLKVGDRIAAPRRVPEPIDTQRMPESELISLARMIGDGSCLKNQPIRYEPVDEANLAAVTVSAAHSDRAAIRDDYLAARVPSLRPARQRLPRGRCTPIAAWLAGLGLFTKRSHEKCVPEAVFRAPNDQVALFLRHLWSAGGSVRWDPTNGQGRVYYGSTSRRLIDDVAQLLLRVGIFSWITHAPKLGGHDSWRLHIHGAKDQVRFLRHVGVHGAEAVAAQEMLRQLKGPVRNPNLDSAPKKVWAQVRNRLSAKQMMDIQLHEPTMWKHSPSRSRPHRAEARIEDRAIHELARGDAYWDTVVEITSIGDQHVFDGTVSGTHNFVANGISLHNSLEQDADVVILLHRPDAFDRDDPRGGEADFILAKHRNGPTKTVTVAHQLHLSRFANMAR

[7] = Trypanosoma cruzi growth suppression in host cells – NIH3T3 host cells, beta-gal luminescence, confirmation (AID 2044); assay type: functional, cell-based;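 further: intracellular parasites grown in NIH/3T3 mouse fibroblasts as host cells; luminescent beta-galactosidase reporter signal from transgenic T. cruzi replicating inside host cells; inhibitors lower the luminescence signal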
[8] = target: T5, Protein RecA (Mycobacterium tuberculosis, UniProt P9WHJ3); assay: Fluorescence Cell-Free Homogeneous Dose Retest to Identify Inhibitors of RecA-Intein Splicing Activity. [Related pubchem assays (depositor defined):AID2097, AID2223, AID489010, AID492950]; assay type: functional
T5 sequence (P9WHJ3 whole entry): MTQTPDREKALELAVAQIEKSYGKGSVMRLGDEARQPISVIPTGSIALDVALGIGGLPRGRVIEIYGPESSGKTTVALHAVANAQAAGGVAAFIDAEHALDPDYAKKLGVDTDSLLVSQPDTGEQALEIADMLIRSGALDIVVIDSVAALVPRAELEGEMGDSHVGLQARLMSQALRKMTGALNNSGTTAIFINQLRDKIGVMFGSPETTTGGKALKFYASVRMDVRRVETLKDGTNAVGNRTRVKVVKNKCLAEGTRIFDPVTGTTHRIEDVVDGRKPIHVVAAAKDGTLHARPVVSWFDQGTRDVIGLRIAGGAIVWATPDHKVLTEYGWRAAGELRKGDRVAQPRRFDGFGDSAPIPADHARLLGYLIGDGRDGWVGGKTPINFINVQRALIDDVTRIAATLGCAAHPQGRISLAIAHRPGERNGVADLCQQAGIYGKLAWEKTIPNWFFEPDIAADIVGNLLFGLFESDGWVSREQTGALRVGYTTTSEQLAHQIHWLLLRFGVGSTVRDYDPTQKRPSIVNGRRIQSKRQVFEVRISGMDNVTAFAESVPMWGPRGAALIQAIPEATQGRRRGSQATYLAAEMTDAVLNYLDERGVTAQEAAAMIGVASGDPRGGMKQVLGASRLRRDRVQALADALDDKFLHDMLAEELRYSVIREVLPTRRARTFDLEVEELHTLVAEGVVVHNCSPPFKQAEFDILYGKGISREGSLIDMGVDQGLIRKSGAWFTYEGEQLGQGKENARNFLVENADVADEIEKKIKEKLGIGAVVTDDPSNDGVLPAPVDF

[9] = NIH3T3 cell viability loss – ATP luminescence, mouse fibroblasts, counter-screen, dose response (AID 2010); assay type: functional, cell-based;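 further: cells exposed to compound for about 90 hours before reading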
[10] = viability of PTEN-deleted HCT116 cells – cell-based, HCT116 PTEN knockout, dose response (AID 1047); assay type: functional;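 further: HCT116 colon tumor cells with PTEN knocked out; cells exposed to compound for 60 hours before readout; potency for loss of cell viability measured by luminescence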
[11] = non-specific 3'UTR reporter inhibition in Clone20-Shn3RL – cell-based, Renilla luciferase, cherry-picked, counter-screen for Shn3 inhibitor project, dose response (AID 624133); assay type: functional
[12] = alpha-synuclein stem-loop luciferase translation blockers – H4 neuroglioma cells, luminescence, confirmation (AID 1988); assay type: functional, cell-based
[13] = luciferase reporter signal suppression in cells – H4 neuroglioma cells, luminescence, dose response (AID 1990); assay type: functional, cell-based
[14] = system: INS1; assay: INS-1E survival protection against cytokine death – cell-based, luminescence, retest, dose response (AID 449756); assay type: functional; conditions: Rattus norvegicus;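 further: cell death triggered by IL-1 beta plus TNF-alpha plus IFN-gamma mixture; protective hits raise ATP signal compared with cytokine alone wells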
[15] = Luminescence Cell-Based Dose Response HTS to Identify Inhibitors of 5'UTR Stem-Loop Driven Prion Protein mRNA Translation in H4 Neuroglioblastoma Cells. [Related pubchem assays: 1827 (Project Summary), 1813 (Primary HTS)]; assay type: functional
[16] = loss of viability in HepG2 cells – cell-based, CellTiter-Glo, cherry-picked, cytotoxicity control for Shn3 inhibitor project, dose response (AID 624134); assay type: functional
[17] = reduction of Shn3 3'UTR-driven luciferase in osteoblasts – cell-based, Clone20 osteoblasts, firefly luciferase, cherry-picked, dose response (AID 624132); assay type: functional;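 further: firefly luciferase luminescence from reporter carrying the Shn3 3'UTR in osteoblasts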

Compound: CCc1ccc(/C=C2\Oc3c(ccc(O)c3CN3CCN(CCO)CC3)C2=O)cc1
- EC50 [1]: 37.1 µM (active)
- EC50 [2]: 73.3 µM (active)

Compound: Cc1ccc(NC(=O)CN(C)CC(=O)Nc2sc3c(c2C(N)=O)CCC3)cc1
- CC50 [3]: 28.1 µM (active)

Compound: CCCCCCN1C(=O)/C(=C/Nc2ccccc2N2CCOCC2)C(=O)NC1=S
- EC50 [1]: > 300 µM (not active)
- EC50 [2]: > 300 µM (inconclusive)

Compound: O=C(Nc1ccc(N2CCOCC2)cc1)c1cc2c(s1)CCCCC2
- CC50 [3]: 23.8 µM (active)

Compound: COc1ccc(CN2C[C@H](Cc3ccccc3)[C@@H](CC(=O)Nc3ccccc3)C2=O)cc1
- CC50 [3]: 22 µM (active)

Compound: O=C(O)CCc1ccc(-c2ccccc2)n1-c1cccc(C(=O)O)c1
- EC50 [1]: > 300 µM (not active)
- EC50 [2]: > 300 µM (not active)

Compound: CCOC(=O)c1cnc(SCc2cccc(C)c2)nc1N
- CC50 [3]: 43.8 µM (active)

Compound: CCN1C(=C(C#N)C#N)C=Cc2ccccc21
- EC50 [1]: > 300 µM (inconclusive)
- EC50 [2]: > 300 µM (not active)

Compound: CCCN1CCc2c(sc(NC(=O)c3ccc(S(=O)(=O)N4CCCC4)cc3)c2C(N)=O)C1
- EC50 [4]: 3.22 µM (active)

Compound: CCCn1c(N2CCN(Cc3ccc(Cl)cc3)CC2)nc2ccccc21
- CC50 [5]: > 40 µM (active)

Compound: CC/C(NCCCN(C)C)=C1/C(=O)NC(=O)N(c2ccc(OC)cc2)C1=O
- EC50 [1]: > 300 µM (not active)
- EC50 [2]: > 300 µM (not active)

Compound: NC(=O)c1cc(-c2csc(-c3cccnc3)n2)ccc1O
- CC50 [3]: 22.7 µM (active)

Compound: Cc1ccc(N(C)S(=O)(=O)c2c(C)noc2/C=C/N(C)C)cc1
- EC50 [1]: > 300 µM (not active)
- EC50 [2]: > 300 µM (not active)

Compound: FC(F)(F)c1cc(C(F)(F)F)n2nc(-c3sccc3-n3cccc3)cc2n1
- EC50 [1]: > 300 µM (not active)
- EC50 [2]: > 300 µM (not active)

Compound: Cc1cc[n+](C2=C([N-]S(=O)(=O)c3cccs3)C(=O)c3ccccc3C2=O)cc1C
- AC50 [6]: 3.69 µM (active)
- EC50 [7]: > 60 µM (not active)
- EC50 [1]: > 300 µM (not active)
- EC50 [2]: > 300 µM (not active)
- EC50 [8]: 3.8 µM (active)
- EC50 [9]: > 30 µM (not active)

Compound: Cc1nn(CCc2nn[nH]n2)c2nc(-c3ccc(Br)cc3)cc(C(F)(F)F)c12
- CC50 [5]: > 40 µM (active)

Compound: CCOC(=O)N1CCN(c2nc(N(c3ccccc3)c3ccccc3)nc(-n3ccnc3)n2)CC1
- CC50 [5]: > 40 µM (active)

Compound: CC(=O)Nc1cccc(-c2cc(-c3c(Cl)cccc3Cl)no2)c1
- CC50 [3]: 18.3 µM (active)

Compound: CC(C)(C)N1CC2([N+](=O)[O-])CN(C(C)(C)C)CC([N+](=O)[O-])(C1)C2
- EC50 [4]: 4.6 µM (active)

Compound: CCOc1ccc(S(=O)(=O)N2CCN(C(=O)c3cc4c(s3)CCCC4)CC2)cc1
- CC50 [5]: > 40 µM (active)
- CC50 [3]: 28.8 µM (active)

Compound: Cc1nn(Cc2ccccc2Cl)c2sc(C(=O)NCCCn3ccnc3)cc12
- CC50 [5]: > 40 µM (active)

Compound: S=C(NCCc1ccc(Cl)cc1)Nc1ccc(Cl)cc1Cl
- EC50 [10]: 30.9 µM (active)

Compound: CC(=O)CSc1ncnc2c1cnn2-c1ccccc1
- CC50 [3]: 42.5 µM (active)

Compound: C/C(=N/N=C(\C)c1ccccc1O)c1ccccc1O
- EC50 [1]: > 300 µM (not active)
- EC50 [2]: > 300 µM (inconclusive)

Compound: O=C(Cn1cncn1)N/N=C/c1c2ccccc2cc2ccccc12
- EC50 [1]: > 300 µM (not active)
- EC50 [2]: > 300 µM (not active)

Compound: COc1cc2nc(N3CCN(c4cc(C)ccc4C)CC3)nc(N)c2cc1OC
- EC50 [7]: 3.35 µM (active)
- AC50 [11]: 12.7 µM (active)
- EC50 [12]: > 120 µM (not active)
- EC50 [13]: > 120 µM (not active)
- AC50 [14]: 7.37 µM (active)
- EC50 [15]: > 120 µM (not active)
- EC50 [9]: 16.7 µM (active)
- AC50 [16]: 10.2 µM (active)
- CC50 [5]: 3.41 µM (active)
- AC50 [17]: 5.44 µM (active)
